The target in one assay is B-Raf (V600E) (Homo sapiens (Human), UniProt P15056, V600E). In words: Raf IC50 assay, time-resolved fluorescence energy transfer (TR-FRET), B-Raf. The assay is classed as biochemical. How it is done: The enzyme was incubated with the compounds at room temperature for 60 minutes and the reactions were initiated by the addition of ATP and GST-MEK1. […] Plates were sealed and incubated at room temperature for 2 hours, and then the TR-FRET signals were read on BMG PHERAstar FS instrument. The IC50 for each compound was calculated by non linear regression by Graphpad Prism software.
B-Raf (V600E), sequence (P15056 whole entry V600E): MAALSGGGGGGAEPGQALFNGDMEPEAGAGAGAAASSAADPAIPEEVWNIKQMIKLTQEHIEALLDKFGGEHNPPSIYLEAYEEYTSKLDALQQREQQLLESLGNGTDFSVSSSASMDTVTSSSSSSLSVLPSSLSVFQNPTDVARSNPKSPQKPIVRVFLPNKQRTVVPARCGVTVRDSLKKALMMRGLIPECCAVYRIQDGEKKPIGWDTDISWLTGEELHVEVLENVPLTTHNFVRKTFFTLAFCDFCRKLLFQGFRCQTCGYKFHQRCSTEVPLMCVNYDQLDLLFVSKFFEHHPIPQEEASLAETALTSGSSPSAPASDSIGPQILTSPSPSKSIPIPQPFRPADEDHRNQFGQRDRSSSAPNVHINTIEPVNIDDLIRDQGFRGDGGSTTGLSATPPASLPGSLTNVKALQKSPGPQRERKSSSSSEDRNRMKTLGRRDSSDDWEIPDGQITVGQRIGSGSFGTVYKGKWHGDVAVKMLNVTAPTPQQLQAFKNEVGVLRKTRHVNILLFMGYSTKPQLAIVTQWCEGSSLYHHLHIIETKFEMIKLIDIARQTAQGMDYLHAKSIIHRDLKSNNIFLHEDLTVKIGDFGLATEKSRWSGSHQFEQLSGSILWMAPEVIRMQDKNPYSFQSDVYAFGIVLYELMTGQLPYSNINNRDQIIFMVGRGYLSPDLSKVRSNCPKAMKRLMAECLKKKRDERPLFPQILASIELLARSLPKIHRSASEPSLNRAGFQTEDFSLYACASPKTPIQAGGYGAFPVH
(In TR-FRET formats the signal depends on donor and acceptor labels being close together.)

The target in a further assay is C-Raf (Y340D/Y341D) (Homo sapiens (Human), UniProt P04049, Y340D/Y341D). Nature of the assay: Raf IC50 assay, time-resolved fluorescence energy transfer (TR-FRET), C-Raf. The assay is classed as biochemical. Conditions: 0.5 nM C-Raf, 0.1 mM ATP, GST-tagged MEK1 substrate, 60 min preincubation. How it is done:
The assay was carried out in reactions (10 μL) containing 0.0625 nM B-Raf or 0.5 nM C-Raf, 25 mM Tris pH7.4, 10 mM MgCl2, 0.5 mM EGTA, 0.5 mM […], 5 mM beta-glycerophosphate, 0.01% Triton X-100, 2.5 mM DTT, 0.1% BSA, 0.1 mM ATP, 13.7 nM GST-tagged MEK1 (Full-length protein with K97R mutation, recombinant protein purified from bacterial expression system) and 0-5 μM compounds disclosed herein (final concentration of 1% DMSO). The enzyme was incubated with the compounds at room temperature for 60 minutes and the reactions were initiated by the addition of ATP and GST-MEK1. After incubating at room temperature for 60 minutes, an equal volume of stop buffer containing 25 mM Tris pH7.4, 400 mM KF, 50 mM EDTA, 0.01% BSA, 0.01% Triton X-100, 1 test of Eu3+ Cryptate-conjugated rabbit polyclonal antibody anti-Phospho MEK1/2 (Ser217/221) and 1 test of d2-conjugated mouse monoclonal antibody anti-glutathione S-transferase was added to stop the reactions. Plates were sealed and incubated at room temperature for 2 hours, and then the TR-FRET signals were read on BMG PHERAstar FS instrument. The IC50 for each compound was calculated by non linear regression by Graphpad Prism software.

Where [1] appears, read: 0.0625 nM B-Raf, 0.1 mM ATP, GST-tagged MEK1 substrate, 60 min preincubation, read-out: B-Raf (V600E) IC50.

The structures appear in SMILES notation. Where two headings read alike, the source gives them in different places. A value given as a limit tells only on which side of the number the result lay.

The record followed here is patent US9273046B2, “Fused tricyclic compounds as Raf kinase inhibitors” (BeiGene, LTD., priority 2011, dated 2016).

C-Raf (Y340D/Y341D), sequence (P04049 whole entry Y340D/Y341D): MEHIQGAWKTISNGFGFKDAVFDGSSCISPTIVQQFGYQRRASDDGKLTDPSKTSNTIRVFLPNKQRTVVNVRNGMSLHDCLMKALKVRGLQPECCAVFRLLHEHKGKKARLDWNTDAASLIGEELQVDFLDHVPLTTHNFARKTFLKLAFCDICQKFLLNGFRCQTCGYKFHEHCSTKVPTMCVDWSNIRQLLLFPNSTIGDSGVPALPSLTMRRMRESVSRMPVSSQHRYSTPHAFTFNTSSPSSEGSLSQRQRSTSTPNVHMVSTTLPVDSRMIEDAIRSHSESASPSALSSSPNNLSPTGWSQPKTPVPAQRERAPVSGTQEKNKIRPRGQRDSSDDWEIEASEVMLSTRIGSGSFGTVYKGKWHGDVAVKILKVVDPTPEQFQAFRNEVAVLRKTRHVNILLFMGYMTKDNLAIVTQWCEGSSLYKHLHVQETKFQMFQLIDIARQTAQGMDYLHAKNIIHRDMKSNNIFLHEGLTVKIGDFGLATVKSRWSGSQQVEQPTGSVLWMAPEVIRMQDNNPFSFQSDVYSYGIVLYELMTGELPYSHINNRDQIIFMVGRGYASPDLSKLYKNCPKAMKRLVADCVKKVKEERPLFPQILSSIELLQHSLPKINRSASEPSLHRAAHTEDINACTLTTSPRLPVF

As a reminder, the IC50 is the concentration that gives 50% inhibition. For the compound `O=C1CCc2c(Oc3ccc4c(c3)C3C(C4)C3c3nc4ccccc4[nH]3)ccnc2N1` (racemic) [Compound 1.1, (±)-exo-5-((1-(1H-benzo[d]imidazol-2-yl)-1,1a,6,6a-tetrahydrocyclopropa[a]inden-3-yl)oxy)-3,4-dihydro-1,8-naphthyridin-2(1H)-one], the IC50 on B-Raf (V600E) (setting [1]) was 11 nM.
`O=C1CCc2c(Oc3ccc4c(c3)C3C(C4)C3c3nc4ccccc4s3)ccnc2N1` (racemic) [Compound 1.3, (±)-exo-5-((1-(benzo[d]thiazol-2-yl)-1,1a,6,6a-tetrahydrocyclopropa[a]inden-3-yl)oxy)-3,4-dihydro-1,8-naphthyridin-2(1H)-one]: the IC50 is 88 nM at B-Raf (V600E) (setting [1]) and 5.5 nM against C-Raf (Y340D/Y341D).
In the case of `O=C1CCc2c(Oc3ccc4c(c3)C3C(O4)C3c3nc4ccccc4[nH]3)ccnc2N1` (racemic) [Compound 2.1, (±)-exo-5-((1-(1H-benzo[d]imidazol-2-yl)-1a,6b-dihydro-1H-cyclopropa[b]benzofuran-5-yl)oxy)-3,4-dihydro-1,8-naphthyridin-2(1H)-one], the results for the IC50 on B-Raf (V600E) (setting [1]) and on C-Raf (Y340D/Y341D) were 3.1 nM and 0.3 nM, respectively.
Regarding `O=C1CCc2c(Oc3ccc4c(c3)C3C(O4)C3c3nc4ccc(O)cc4[nH]3)ccnc2N1` (racemic) [Compound 2.27, (±)-exo-5-((1-(6-hydroxy-1H-benzo[d]imidazol-2-yl)-1a,6b-dihydro-1H-cyclopropa[b]benzofuran-5-yl)oxy)-3,4-dihydro-1,8-naphthyridin-2(1H)-one], the IC50 on B-Raf (V600E) (setting [1]) was 2.5 nM; against C-Raf (Y340D/Y341D), less than 0.25 nM.
The like results for `O=C1CCc2c(Oc3ccc4c(c3)C3C(O4)C3c3nc(-c4ccccc4)no3)ccnc2N1` (racemic) [Compound 2.29, (±)-exo-5-((1-(3-phenyl-1,2,4-oxadiazol-5-yl)-1a,6b-dihydro-1H-cyclopropa[b]benzofuran-5-yl)oxy)-3,4-dihydro-1,8-naphthyridin-2(1H)-one] were, in that order, 3.2 nM and less than 0.25 nM.
The like results for `O=C1CCc2c(Oc3ccc4c(c3)C3C(O4)C3c3nc(-c4ccccc4)c[nH]3)ccnc2N1` (racemic) [Compound 2.30, (±)-exo-5-((1-(4-phenyl-1H-imidazol-2-yl)-1a,6b-dihydro-1H-cyclopropa[b]benzofuran-5-yl)oxy)-3,4-dihydro-1,8-naphthyridin-2(1H)-one] were, in that order, 0.72 nM and less than 0.25 nM.
Consider `O=C1CCc2c(Oc3ccc4c(c3)C3C(O4)C3c3nc4cc(C(F)(F)F)ccc4n3CCO)ccnc2N1` (racemic) [Compound 2.34, (±)-exo-5-((1-(1-(2-hydroxyethyl)-5-(trifluoromethyl)-1H-benzo[d]imidazol-2-yl)-1a,6b-dihydro-1H-cyclopropa[b]benzofuran-5-yl)oxy)-3,4-dihydro-1,8-naphthyridin-2(1H)-one], for which, on B-Raf (V600E) (setting [1]), the IC50 amounted to 30 nM.
With `O=C1CCc2c(Oc3cc4c(cc3Cl)OC3C(c5nc6ccc(C(F)(F)F)cc6[nH]5)C43)ccnc2N1` (racemic) [Compound 2.36, (±)-exo-5-((4-chloro-1-(6-(trifluoromethyl)-1H-benzo[d]imidazol-2-yl)-1a,6b-dihydro-1H-cyclopropa[b]benzofuran-5-yl)oxy)-3,4-dihydro-1,8-naphthyridin-2(1H)-one], the IC50 on B-Raf (V600E) (setting [1]) is 117 nM; at C-Raf (Y340D/Y341D), 32 nM.
As to `CNC(=O)c1cc(Oc2ccc3c(c2)C2C(O3)C2c2nc3ccc(C(F)(F)F)cc3[nH]2)ccn1` (racemic) [Compound 3.1, (±)-exo-N-methyl-4-((1-(6-(trifluoromethyl)-1H-benzo[d]imidazol-2-yl)-1a,6b-dihydro-1H-cyclopropa[b]benzofuran-5-yl)oxy)picolinamide], at C-Raf (Y340D/Y341D), half-maximal inhibition (IC50) required 6.5 nM.
For `FC(F)(F)c1ccc2nc(C3C4Oc5ccc(Oc6ccncn6)cc5C43)[nH]c2c1` (racemic) [Compound 3.2, (±)-exo-2-(5-(pyrimidin-4-yloxy)-1a,6b-dihydro-1H-cyclopropa[b]benzofuran-1-yl)-6-(trifluoromethyl)-1H-benzo[d]imidazole], the IC50 on C-Raf (Y340D/Y341D) was 223 nM.
For `FC(F)(F)c1ccc2nc(C3C4Oc5ccc(Oc6ccnc7[nH]ccc67)cc5C43)[nH]c2c1` (racemic) [Compound 3.3, (±)-exo-2-(5-((1H-pyrrolo[2,3-b]pyridin-4-yl)oxy)-1a,6b-dihydro-1H-cyclopropa[b]benzofuran-1-yl)-6-(trifluoromethyl)-1H-benzo[d]imidazole], the 50% inhibitory concentration (IC50) at B-Raf (V600E) (setting [1]) stood at 522 nM; at C-Raf (Y340D/Y341D), 104 nM.
The like results for `FC(F)(F)c1ccc2nc(C3C4Oc5ccc(Oc6ccnc(-c7nc(C(F)(F)F)c[nH]7)c6)cc5C43)[nH]c2c1` (racemic) [Compound 3.4, (±)-exo-6-(trifluoromethyl)-2-(5-((2-(4-(trifluoromethyl)-1H-imidazol-2-yl)pyridin-4-yl)oxy)-1a,6b-dihydro-1H-cyclopropa[b]benzofuran-1-yl)-1H-benzo[d]imidazole] were, in that order, 291 nM and 56 nM.
The like results for `FC(F)(F)c1ccc2nc(C3C4Oc5ccc(Oc6ccncc6)cc5C43)[nH]c2c1` (racemic) [Compound 3.6, (±)-exo-2-(5-(pyridin-4-yloxy)-1a,6b-dihydro-1H-cyclopropa[b]benzofuran-1-yl)-6-(trifluoromethyl)-1H-benzo[d]imidazole] were, in that order, 518 nM and 86 nM.
`O=C1Nc2nccc(Oc3ccc4c(c3)C3C(O4)C3c3nc4ccc(C(F)(F)F)cc4[nH]3)c2CO1` (racemic) [Compound 3.7, (±)-exo-5-((1-(6-(trifluoromethyl)-1H-benzo[d]imidazol-2-yl)-1a,6b-dihydro-1H-cyclopropa[b]benzofuran-5-yl)oxy)-1H-pyrido[2,3-d][1,3]oxazin-2(4H)-one]: the IC50 on B-Raf (V600E) (setting [1]) is 26 nM; against C-Raf (Y340D/Y341D) it was 3.2 nM.
For the compound `O=C1CCc2c(Oc3ccc4c(c3)C3C(C4)C3C(=O)O)ccnc2N1` (racemic) [Intermediate I, (±)-exo-3-((7-Oxo-5,6,7,8-tetrahydro-1,8-naphthyridin-4-yl)oxy)-1,1a,6,6a-tetrahydrocyclopropa[a]indene-1-carboxylic acid], the IC50 against B-Raf (V600E) and at C-Raf (Y340D/Y341D) was more than 5000 nM each time.
Regarding `O=C1CCc2c(Oc3ccc4c(c3)C3C(O4)C3C(=O)O)ccnc2N1` (racemic) [Intermediate II, (±)-exo-5-((7-Oxo-5,6,7,8-tetrahydro-1,8-naphthyridin-4-yl)oxy)-1a,6b-dihydro-1H-cyclopropa[b]benzofuran-1-carboxylic acid], the IC50 against B-Raf (V600E) was more than 5000 nM; at C-Raf (Y340D/Y341D) it was 2910 nM.
For `O=C1CCc2c(Oc3ccc4c(c3)[C@H]3[C@@H](O4)[C@@H]3c3nc4ccc(C(F)(F)F)cc4[nH]3)ccnc2N1` [Compound 2.2a], the IC50 worked out at 6.7 nM at B-Raf (V600E) (setting [1]) and 1.2 nM against C-Raf (Y340D/Y341D).
The like results for `O=C1CCc2c(Oc3ccc4c(c3)[C@@H]3[C@H](O4)[C@H]3c3nc4ccc(C(F)(F)F)cc4[nH]3)ccnc2N1` [Compound 2.2b, 5-(((1R,1aS,6bR)-1-(6-(trifluoromethyl)-1H-benzo[d]imidazol-2-yl)-1a,6b-dihydro-1H-cyclopropa[b]benzofuran-5-yl)oxy)-3,4-dihydro-1,8-naphthyridin-2(1H)-one] were, in that order, 53 nM and 8.8 nM.
Take `Cc1cc2[nH]c([C@@H]3[C@H]4Oc5ccc(Oc6ccnc7c6CCC(=O)N7)cc5[C@H]43)nc2cc1F` [Compound 2.4a]: at C-Raf (Y340D/Y341D), 0.54 nM corresponded to half-maximal inhibition (IC50).
`O=C1CCc2c(Oc3ccc4c(c3)[C@@H]3[C@H](O4)[C@H]3c3nc4cc(Cl)c(C(F)(F)F)cc4[nH]3)ccnc2N1` [Compound 2.5a] displayed an IC50 at C-Raf (Y340D/Y341D) of 21 nM.
The same measure, in the same setting: in the case of `O=C1CCc2c(Oc3ccc4c(c3)[C@H]3[C@@H](O4)[C@@H]3c3nc4cc(Cl)c(C(F)(F)F)cc4[nH]3)ccnc2N1` [Compound 2.5b] it was 2.5 nM.
Consider `N#Cc1ccc2nc(C3C4Oc5ccc(Oc6ccnc7c6CCC(=O)N7)cc5C43)[nH]c2c1` (stereo not shown) [Compound 2.6], for which the values for the IC50 at B-Raf (V600E) (setting [1]) and against C-Raf (Y340D/Y341D) were 22 nM and 4.5 nM, respectively.
In the case of `O=C1CCc2c(Oc3ccc4c(c3)C3C(O4)C3c3nc4ccc(F)cc4[nH]3)ccnc2N1` (stereo not shown) [Compound 2.7], the IC50 on B-Raf (V600E) (setting [1]) was determined as 10 nM; on C-Raf (Y340D/Y341D), 2.1 nM.
Regarding `Cc1ccc2nc(C3C4Oc5ccc(Oc6ccnc7c6CCC(=O)N7)cc5C43)[nH]c2c1` (stereo not shown) [Compound 2.8], the IC50 on B-Raf (V600E) (setting [1]) was 3.7 nM; against C-Raf (Y340D/Y341D), 0.71 nM.
The like results for `O=C1CCc2c(Oc3ccc4c(c3)C3C(O4)C3c3nc4ccncc4[nH]3)ccnc2N1` (stereo not shown) [Compound 2.9] were, in that order, 42 nM and 4.5 nM.
The like results for `O=C1CCc2c(Oc3ccc4c(c3)C3C(O4)C3c3nc4c(Cl)cc(C(F)(F)F)cc4[nH]3)ccnc2N1` (stereo not shown) [Compound 2.10] were, in that order, 80 nM and 25 nM.
In the case of `O=C1CCc2c(Oc3ccc4c(c3)C3C(O4)C3c3nc4cc5c(cc4[nH]3)CCC5)ccnc2N1` (stereo not shown) [Compound 2.21], the IC50 on B-Raf (V600E) (setting [1]) was determined as 1.2 nM.
